{
  "source": "ChEMBL document CHEMBL5465560",
  "about": "“Selectivity Literature for EUbOPEN Chemogenomic Library” (2024)",
  "key": {"[1]": {"target": "RAC-gamma serine/threonine-protein kinase (Homo sapiens, UniProt Q9Y243)", "sequence (Q9Y243 whole entry)": "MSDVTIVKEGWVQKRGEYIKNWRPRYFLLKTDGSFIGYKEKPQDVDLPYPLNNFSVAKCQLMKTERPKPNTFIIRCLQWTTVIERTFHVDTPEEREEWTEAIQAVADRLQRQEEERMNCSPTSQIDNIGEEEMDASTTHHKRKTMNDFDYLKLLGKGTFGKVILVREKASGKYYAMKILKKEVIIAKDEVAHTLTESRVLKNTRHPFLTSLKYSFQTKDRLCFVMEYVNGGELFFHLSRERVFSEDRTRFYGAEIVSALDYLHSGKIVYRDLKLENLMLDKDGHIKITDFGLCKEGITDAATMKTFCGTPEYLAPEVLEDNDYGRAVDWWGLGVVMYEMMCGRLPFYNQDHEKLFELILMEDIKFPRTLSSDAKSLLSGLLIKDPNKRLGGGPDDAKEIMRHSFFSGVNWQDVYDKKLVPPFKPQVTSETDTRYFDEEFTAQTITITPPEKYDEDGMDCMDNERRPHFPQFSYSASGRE", "assay": "Selectivity interaction (KinomeScan (DiscoverX)) EUB0000655a AKT3", "conditions": "at 10 µM"}, "[2]": {"target": "T1, Homeodomain-interacting protein kinase 4 (Homo sapiens) (UniProt Q8NE63)", "T1 sequence (whole entry)": "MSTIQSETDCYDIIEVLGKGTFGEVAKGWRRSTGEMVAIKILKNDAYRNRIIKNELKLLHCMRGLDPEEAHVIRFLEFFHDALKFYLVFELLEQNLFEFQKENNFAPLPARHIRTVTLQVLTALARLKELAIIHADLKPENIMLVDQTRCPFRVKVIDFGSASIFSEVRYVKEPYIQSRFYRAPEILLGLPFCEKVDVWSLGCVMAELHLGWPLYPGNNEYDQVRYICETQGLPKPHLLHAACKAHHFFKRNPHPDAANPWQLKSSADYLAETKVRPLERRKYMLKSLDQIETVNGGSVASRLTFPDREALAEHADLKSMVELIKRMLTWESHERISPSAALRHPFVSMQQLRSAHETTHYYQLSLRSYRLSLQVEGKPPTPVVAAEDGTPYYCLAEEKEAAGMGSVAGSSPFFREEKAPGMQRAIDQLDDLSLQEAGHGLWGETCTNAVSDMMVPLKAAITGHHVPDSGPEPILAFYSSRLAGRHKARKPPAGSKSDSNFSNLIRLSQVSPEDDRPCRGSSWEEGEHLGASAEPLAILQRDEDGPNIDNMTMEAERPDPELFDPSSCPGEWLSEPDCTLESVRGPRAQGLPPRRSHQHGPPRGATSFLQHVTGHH", "assay": "Selectivity interaction (Kinase panel (Z-LYTE Assay)) EUB0001632a HIPK4", "conditions": "at 10 µM"}, "[3]": {"target": "T2, Serine/threonine-protein kinase TAO3 (Homo sapiens) (UniProt Q9H2K8)", "T2 sequence (whole entry)": "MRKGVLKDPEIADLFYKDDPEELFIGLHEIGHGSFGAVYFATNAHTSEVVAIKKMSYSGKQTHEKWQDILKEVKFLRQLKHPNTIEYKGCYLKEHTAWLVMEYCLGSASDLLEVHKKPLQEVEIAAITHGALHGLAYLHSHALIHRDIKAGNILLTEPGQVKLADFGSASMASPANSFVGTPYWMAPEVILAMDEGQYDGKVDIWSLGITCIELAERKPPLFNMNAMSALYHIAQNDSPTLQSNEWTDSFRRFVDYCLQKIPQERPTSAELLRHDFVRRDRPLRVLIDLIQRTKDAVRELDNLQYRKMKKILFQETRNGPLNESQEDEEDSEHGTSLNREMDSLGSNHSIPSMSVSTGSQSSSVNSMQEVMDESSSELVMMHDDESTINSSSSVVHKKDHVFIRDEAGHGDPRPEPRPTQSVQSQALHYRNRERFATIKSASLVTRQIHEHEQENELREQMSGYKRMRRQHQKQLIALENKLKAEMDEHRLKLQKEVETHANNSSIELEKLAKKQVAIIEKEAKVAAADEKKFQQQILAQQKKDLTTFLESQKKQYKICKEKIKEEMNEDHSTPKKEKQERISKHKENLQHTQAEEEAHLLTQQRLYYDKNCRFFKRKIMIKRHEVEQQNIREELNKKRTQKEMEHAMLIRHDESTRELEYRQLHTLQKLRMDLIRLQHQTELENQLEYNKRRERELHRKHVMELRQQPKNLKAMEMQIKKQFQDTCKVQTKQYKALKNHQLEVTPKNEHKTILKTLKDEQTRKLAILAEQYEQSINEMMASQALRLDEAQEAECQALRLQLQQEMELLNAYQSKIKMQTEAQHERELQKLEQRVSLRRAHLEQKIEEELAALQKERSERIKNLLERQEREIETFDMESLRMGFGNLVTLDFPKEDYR", "assay": "Selectivity interaction (Kinase panel (Invitrogen)) EUB0000639a TAOK3", "conditions": "at 200 nM"}, "[4]": {"target": "Dual specificity mitogen-activated protein kinase kinase 1 (Homo sapiens, UniProt Q02750)", "sequence (Q02750 whole entry)": "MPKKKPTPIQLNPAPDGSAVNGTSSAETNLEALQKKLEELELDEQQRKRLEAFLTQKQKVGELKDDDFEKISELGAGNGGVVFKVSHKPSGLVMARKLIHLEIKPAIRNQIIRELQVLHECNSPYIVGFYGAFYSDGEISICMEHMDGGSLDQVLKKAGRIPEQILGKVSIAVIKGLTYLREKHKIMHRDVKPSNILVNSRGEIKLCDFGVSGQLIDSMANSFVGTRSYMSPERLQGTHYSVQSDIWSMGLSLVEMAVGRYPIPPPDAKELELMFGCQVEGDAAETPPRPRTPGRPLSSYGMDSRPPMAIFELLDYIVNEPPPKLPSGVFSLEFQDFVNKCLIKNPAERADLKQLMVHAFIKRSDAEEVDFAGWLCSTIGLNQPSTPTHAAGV", "assay": "Selectivity interaction (KinomeScan (DiscoverX)) EUB0000595a MAP2K1", "conditions": "at 10 µM"}, "[5]": {"target": "Serine/threonine-protein kinase VRK2 (Homo sapiens) (UniProt Q86Y07)", "sequence (Q86Y07 whole entry)": "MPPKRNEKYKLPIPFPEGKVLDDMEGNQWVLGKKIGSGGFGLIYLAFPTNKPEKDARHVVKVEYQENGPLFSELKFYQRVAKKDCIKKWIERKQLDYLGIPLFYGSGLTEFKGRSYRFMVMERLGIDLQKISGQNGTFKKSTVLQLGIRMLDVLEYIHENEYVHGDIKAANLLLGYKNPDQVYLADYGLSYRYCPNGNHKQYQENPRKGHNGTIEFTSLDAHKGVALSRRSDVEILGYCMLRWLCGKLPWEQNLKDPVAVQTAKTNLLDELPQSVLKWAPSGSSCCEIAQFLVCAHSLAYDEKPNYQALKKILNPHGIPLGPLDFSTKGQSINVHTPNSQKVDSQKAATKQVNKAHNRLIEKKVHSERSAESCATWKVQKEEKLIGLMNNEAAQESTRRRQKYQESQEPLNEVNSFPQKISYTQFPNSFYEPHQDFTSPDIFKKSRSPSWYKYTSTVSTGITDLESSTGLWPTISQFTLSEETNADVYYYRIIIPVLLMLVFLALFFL", "assay": "Selectivity interaction (KinomeScan (DiscoverX)) EUB0000595a VRK2", "conditions": "at 10 µM"}, "[6]": {"target": "T3, Serine/threonine-protein kinase D2 (Homo sapiens) (UniProt Q9BZL6)", "T3 sequence (whole entry)": "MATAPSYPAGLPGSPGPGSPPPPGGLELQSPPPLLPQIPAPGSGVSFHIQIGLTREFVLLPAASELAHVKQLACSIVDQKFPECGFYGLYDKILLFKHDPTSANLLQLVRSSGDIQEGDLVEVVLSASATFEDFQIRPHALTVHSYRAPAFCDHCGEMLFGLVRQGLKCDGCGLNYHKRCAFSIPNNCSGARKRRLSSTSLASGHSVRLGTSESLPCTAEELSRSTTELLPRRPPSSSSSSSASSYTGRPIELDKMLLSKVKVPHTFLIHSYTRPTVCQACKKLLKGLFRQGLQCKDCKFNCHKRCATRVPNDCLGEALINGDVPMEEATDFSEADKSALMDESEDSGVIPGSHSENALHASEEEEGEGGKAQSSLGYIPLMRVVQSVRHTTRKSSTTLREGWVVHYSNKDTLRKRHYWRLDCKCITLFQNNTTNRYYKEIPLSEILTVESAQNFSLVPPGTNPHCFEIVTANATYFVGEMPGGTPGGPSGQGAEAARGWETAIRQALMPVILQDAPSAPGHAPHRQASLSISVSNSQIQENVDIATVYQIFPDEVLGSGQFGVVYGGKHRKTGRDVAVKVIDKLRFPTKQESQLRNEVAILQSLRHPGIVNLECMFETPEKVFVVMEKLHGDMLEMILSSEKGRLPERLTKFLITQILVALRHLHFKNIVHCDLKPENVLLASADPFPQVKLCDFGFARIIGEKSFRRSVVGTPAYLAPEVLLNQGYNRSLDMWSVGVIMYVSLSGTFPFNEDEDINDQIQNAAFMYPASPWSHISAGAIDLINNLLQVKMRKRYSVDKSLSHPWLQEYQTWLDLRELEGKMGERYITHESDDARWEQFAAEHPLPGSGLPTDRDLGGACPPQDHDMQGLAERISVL", "assay": "Selectivity interaction (Kinase screening (Nanosyn)) EUB0000604a PRKD2"}, "[7]": {"target": "5'-AMP-activated protein kinase catalytic subunit alpha-1 (Homo sapiens, UniProt Q13131)", "sequence (Q13131 whole entry, looked up)": "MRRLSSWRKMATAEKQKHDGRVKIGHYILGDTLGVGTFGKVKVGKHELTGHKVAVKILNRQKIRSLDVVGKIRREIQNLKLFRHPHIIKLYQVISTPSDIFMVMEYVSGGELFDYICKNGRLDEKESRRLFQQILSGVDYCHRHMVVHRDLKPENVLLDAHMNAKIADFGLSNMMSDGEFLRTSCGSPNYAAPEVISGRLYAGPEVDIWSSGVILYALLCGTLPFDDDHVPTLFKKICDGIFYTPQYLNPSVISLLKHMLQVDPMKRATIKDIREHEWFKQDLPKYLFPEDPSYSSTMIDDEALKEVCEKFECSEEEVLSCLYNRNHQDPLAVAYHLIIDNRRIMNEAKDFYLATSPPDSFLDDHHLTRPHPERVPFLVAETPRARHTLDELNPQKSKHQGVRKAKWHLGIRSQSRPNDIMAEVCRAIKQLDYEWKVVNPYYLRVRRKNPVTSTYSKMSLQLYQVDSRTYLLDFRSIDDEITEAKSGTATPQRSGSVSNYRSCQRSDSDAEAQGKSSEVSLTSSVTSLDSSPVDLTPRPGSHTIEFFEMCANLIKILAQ", "assay": "Selectivity interaction (ActivX KiNativ screen (ex vivo kinase selectivity in human PBMCs)) EUB0001619a PRKAA1", "format": "cell-based", "conditions": "PBMC, at 1 µM"}},
  "data": [
    {"smiles": "CN(C)CCOc1ccc(-c2nc(-c3ccncc3)c(-c3ccc4c(c3)CC/C4=N\\O)[nH]2)cc1", "values": [
      {"measurement": "% of control", "setting": "[1]", "value": 97, "unit": "%"}
    ]},
    {"smiles": "Cn1cc(-n2cnc3c(NCc4nc5cc(Cl)c(Cl)cc5[nH]4)nc(N4CCOCC4)nc32)cn1", "values": [
      {"measurement": "% of control", "setting": "[2]", "value": 6.45, "unit": "%"}
    ]},
    {"smiles": "CC[C@@H]1[C@H](F)C(=O)N[C@@H]1COc1nccc2cc(C(N)=O)c(OC)cc12", "note": "[ZIMLOVISERTIB]", "values": [
      {"measurement": "% of inhibition", "setting": "[3]", "value": -1.02, "unit": "%"}
    ]},
    {"smiles": "COCC(=O)NC/C=C/c1ccc2ncnc(Nc3ccc(Oc4ccc(C)nc4)c(C)c3)c2c1", "note": "[CP-724714]", "values": [
      {"measurement": "% of control", "setting": "[4]", "value": 9.4, "unit": "%"},
      {"measurement": "% of control", "setting": "[5]", "value": 100, "unit": "%"}
    ]},
    {"smiles": "Cc1cnc(Nc2ccc(F)cc2Cl)nc1-c1c[nH]c(C(=O)N[C@H](CO)c2cccc(Cl)c2)c1", "values": [
      {"measurement": "% of inhibition", "setting": "[6]", "value": 50, "unit": "%"}
    ]},
    {"smiles": "N#Cc1cccc(-c2c[nH]c3ncnc(N4CCOCC4)c23)c1", "values": [
      {"measurement": "% of inhibition", "setting": "[7]", "value": 16, "unit": "%"}
    ]}
  ]
}
